Measured values taken from patent publication US20240228488A1 (TAKEDA PHARMACEUTICAL COMPANY LIMITED, priority 2021, published 2024).
pEC50: −log10 of the molar value.

Key:
[1] = biological target: human activated kallikrein enzyme (Homo sapiens, UniProt P03952); test: Plasma kallikrein inhibition, fluorogenic PFR-AMC substrate, 500 pM activated kallikrein format; type: biochemical; settings: 500 pM activated kallikrein, 300 uM PFR-AMC, 30 min preincubation, 10 min reaction; read-out: Primary Dose Response Assay: Average EC50
Summary of the method: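 500 pM enz + cpd, 30 min RT preinc; start w/ PFR-AMC 300 uM; 10 min RT; Ex380/Em460. Buffer: Tris 20 mM pH 7.5, EDTA 1 mM, NaCl 150 mM, PEG-400 0.1%, Triton 0.1%. EC50.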

plasma kallikrein = biological target: T1, plasma kallikrein (Homo sapiens, UniProt P03952); test: Neat human plasma assay, FXIIa contact pathway-activated, PFR-AMC substrate; type: biochemical; settings: citrated human plasma 78% final, 10 nM human FXIIa, 100 μM PFR-AMC; read-out: Human Plasma Assay: IC90
T1 construct: from tissue
Procedure: To analyze inhibition of plasma kallikrein in an ex vivo setting, the potency of compounds was measure in contact pathway-activated plasma assays. In a fluorogenic peptide substrate assay, test compounds dissolved in DMSO were added to sodium citrate collected human or rat plasma in a 96-well microplate. Alternatively, citrated plasma was collected from rats administered the compounds orally or by IV. 10 nM of human FXIIa (Enzyme Research Laboratories) diluted in pKal buffer (20 mM Tris-HCl, pH 7.5, 150 mM NaCl, 1 mM EDTA, 0.1% PEG-8000, and 0.1% Triton X-100) was added to the plasma, followed by the 100 μM of the profluorescent, synthetic plasma kallikrein substrate PFR-AMC (also diluted in pKal buffer). Final plasma concentration in the reaction was 78%. Fluorescence was immediately monitored by excitation/emission wavelengths of 360 nm/480 nm respectively over a period of 5 minutes in a microplate reader. The resulting linear increase in fluorescence emission (reflecting pKal proteolysis of PFR-AMC substrate) was fit to extract a proteolytic rate (fluorescent units over time), and this rate was subsequently plotted against compound inhibitor concentration. Resulting plots were fit to a standard 4-parameter IC50/IC90 equation to determine min/max values, IC50/90, and slope. All experimental steps were performed at room temperature. Table 50 provides results of the assay.

Chain of human activated kallikrein enzyme (P03952 391-638 limits assumed): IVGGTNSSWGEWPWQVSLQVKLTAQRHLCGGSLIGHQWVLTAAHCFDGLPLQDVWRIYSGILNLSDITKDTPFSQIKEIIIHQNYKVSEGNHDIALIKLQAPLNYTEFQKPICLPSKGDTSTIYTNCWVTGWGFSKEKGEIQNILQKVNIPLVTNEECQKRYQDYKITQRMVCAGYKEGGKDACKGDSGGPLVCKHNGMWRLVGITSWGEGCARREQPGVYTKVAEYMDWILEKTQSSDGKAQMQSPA
Chain of human activated kallikrein enzyme (P03952 20-390 partner limits assumed): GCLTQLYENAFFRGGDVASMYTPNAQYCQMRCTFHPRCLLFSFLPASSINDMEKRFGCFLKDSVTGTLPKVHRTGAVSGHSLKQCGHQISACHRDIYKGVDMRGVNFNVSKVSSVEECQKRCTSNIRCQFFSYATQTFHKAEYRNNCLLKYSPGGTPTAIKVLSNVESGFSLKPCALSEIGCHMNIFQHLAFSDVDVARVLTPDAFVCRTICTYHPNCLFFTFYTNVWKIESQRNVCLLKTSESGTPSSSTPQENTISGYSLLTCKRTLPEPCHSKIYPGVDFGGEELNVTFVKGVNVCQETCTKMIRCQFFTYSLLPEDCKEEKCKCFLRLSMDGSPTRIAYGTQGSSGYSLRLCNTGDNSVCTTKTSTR
T1 sequence (P03952 391-638 limits assumed): as the sequence (P03952 391-638 limits assumed) above
T1 sequence (P03952 20-390 partner limits assumed): as the sequence (P03952 20-390 partner limits assumed) above

pEC50 [1]	IC90 (plasma kallikrein)	Structure (SMILES)
8.00 to 9.00	1500 to 10000 nM	CN(C)C1CCN(c2cc(C3CC3)cn3cc(CNc4cc(NC(=O)[C@H]5C[C@@H]5c5cccc(Cl)c5)ncn4)nc23)C1 (mixture of isomers) [Example I-13, (1S,2S)-2-(3-chlorophenyl)-N-(6-(((6-cyclopropyl-8-(3-(dimethylamino)pyrrolidin-1-yl)imidazo[1,2-a]pyridin-2-yl)methyl)amino)pyrimidin-4-yl)cyclopropane-1-carboxamide]
> 9.00	1500 to 10000 nM	CN1CCN(c2cc(C3CC3)cn3cc(CNc4cnnc(NC(=O)[C@H]5C[C@@H]5c5cccc(Cl)c5)c4)nc23)CC1 [Example 612, (1S,2S)-2-(3-chlorophenyl)-N-(5-(((6-cyclopropyl-8-(4-methylpiperazin-1-yl)imidazo[1,2-a]pyridin-2-yl)methyl)amino)pyridazin-3-yl)cyclopropane-1-carboxamide]
> 9.00	400 to 1500 nM	CC[C@@H](Nc1cc(NC(=O)[C@H]2C[C@@H]2c2nccc(C)n2)nc(C)n1)c1cn2cc(C3CC3)cc(N3CC(=O)N(C)C3=O)c2n1 [Example 358, (1S,2S)-N-(6-(((R)-1-(6-cyclopropyl-8-(3-methyl-2,4-dioxoimidazolidin-1-yl)imidazo[1,2-a]pyridin-2-yl)propyl)amino)-2-methylpyrimidin-4-yl)-2-(4-methylpyrimidin-2-yl)cyclopropane-1-carboxamide]
8.00 to 9.00	1500 to 10000 nM	CN1C(=O)CN(Cc2cc(C3CC3)cn3cc(CNc4cc(NC(=O)[C@H]5C[C@@H]5c5cccc(Cl)c5)ncn4)nc23)C1=O [Example 400, (1S,2S)-2-(3-chlorophenyl)-N-(6-(((6-cyclopropyl-8-((3-methyl-2,4-dioxoimidazolidin-1-yl)methyl)imidazo[1,2-a]pyridin-2-yl)methyl)amino)pyrimidin-4-yl)cyclopropane-1-carboxamide]
> 9.00	< 400 nM	Cc1ccnc([C@H]2C[C@@H]2C(=O)Nc2cc(OCc3cn4cc(C5CC5)cc(N5CC(=O)N(C)C5=O)c4n3)ncn2)n1 (single isomer, unassigned) [Example 30]
> 9.00	400 to 1500 nM	O=C(Nc1cc(NCc2cn3cc(C4CC4)cc(N4CCCC4=O)c3n2)ccn1)[C@H]1C[C@@H]1c1cccc(Cl)c1 [Example 85, (1S,2S)-2-(3-chlorophenyl)-N-(4-(((6-cyclopropyl-8-(2-oxopyrrolidin-1-yl)imidazo[1,2-a]pyridin-2-yl)methyl)amino)pyridin-2-yl)cyclopropane-1-carboxamide]
> 9.00	1500 to 10000 nM	O=C(Nc1cc(NCc2cn3cc(C4CC4)ccc3n2)cc(=O)[nH]1)[C@H]1C[C@@H]1c1cc(Cl)ccn1 [Example 343, (1S,2S)-2-(4-chloropyridin-2-yl)-N-(4-(((6-cyclopropylimidazo[1,2-a]pyridin-2-yl)methyl)amino)-6-oxo-1,6-dihydropyridin-2-yl)cyclopropane-1-carboxamide]
> 9.00	< 400 nM	CN1CC(O)(c2cc(C3CC3)cn3cc(CNc4ccnc(NC(=O)[C@H]5C[C@@H]5c5cccc(Cl)c5)c4)nc23)C1 [Example 608, (1S,2S)-2-(3-chlorophenyl)-N-(4-(((6-cyclopropyl-8-(3-hydroxy-1-methylazetidin-3-yl)imidazo[1,2-a]pyridin-2-yl)methyl)amino)pyridin-2-yl)cyclopropane-1-carboxamide]
> 9.00	400 to 1500 nM	Cc1cc(NCc2cn3cc(C4CC4)cc(N4CCN(C)CC4)c3n2)cc(NC(=O)[C@H]2C[C@@H]2c2cccc(Cl)c2)n1 [Example 605, (1S,2S)-2-(3-chlorophenyl)-N-(4-(((6-cyclopropyl-8-(4-methylpiperazin-1-yl)imidazo[1,2-a]pyridin-2-yl)methyl)amino)-6-methylpyridin-2-yl)cyclopropane-1-carboxamide]
> 9.00	< 400 nM	Cc1ccnc([C@H]2C[C@@H]2C(=O)Nc2cc(N[C@H](C)c3cn4cc(C5CC5)cc(N5CC(=O)N(C)C5=O)c4n3)nc(OCCN(C)C)n2)n1 [Example 276, (1S,2S)—N-(6-(((R)-1-(6-cyclopropyl-8-(3-methyl-2,4-dioxoimidazolidin-1-yl)imidazo[1,2-a]pyridin-2-yl)ethyl)amino)-2-(2-(dimethylamino)ethoxy)pyrimidin-4-yl)-2-(4-methylpyrimidin-2-yl)cyclopropane-1-carboxamide]
> 9.00	400 to 1500 nM	Cc1nc([C@H]2C[C@@H]2C(=O)Nc2cc(N[C@H](C)c3cn4cc(C5CC5)cc(N5CC(=O)N(C)C5=O)c4n3)ncn2)ncc1F (relative stereo) [Example 492, rac-(-(1S*,2S*)-N-(6-(((R)-1-(6-cyclopropyl-8-(3-methyl-2,4-dioxoimidazolidin-1-yl)imidazo[1,2-a]pyridin-2-yl)ethyl)amino)pyrimidin-4-yl)-2-(5-fluoro-4-methylpyrimidin-2-yl)cyclopropane-1-carboxamide]
> 9.00	< 400 nM	Cc1ccnc([C@H]2C[C@@H]2C(=O)Nc2cc(NCc3cn4cc(C5CC5)cc(N5CC(=O)N(C)C5=O)c4n3)ncn2)n1 (single isomer, unassigned) [Example I-260]
8.00 to 9.00	< 400 nM	O=C(Nc1cc(N2C[C@@H](O)C[C@@H]2c2cn3cc(C4CC4)ccc3n2)ncn1)[C@H]1C[C@@H]1c1cc(Cl)ccn1 (single isomer, unassigned; isomer 2) [Example I-249, (1S*,2S*)-2-(4-chloropyridin-2-yl)-N-(6-((2R,4S)-2-(6-cyclopropylimidazo[1,2-a]pyridin-2-yl)-4-hydroxypyrrolidin-1-yl)pyrimidin-4-yl)cyclopropane-1-carboxamide, isomer 2]
> 9.00	400 to 1500 nM	O=C(Nc1cc(NCc2cn3cc(C4CC4)cc(N4CCCC4=O)c3n2)ncn1)[C@H]1C[C@@H]1c1cccc(Cl)c1 [Example 144, (1S,2S)-2-(3-chlorophenyl)-N-(6-(((6-cyclopropyl-8-(2-oxopyrrolidin-1-yl)imidazo[1,2-a]pyridin-2-yl)methyl)amino)pyrimidin-4-yl)cyclopropane-1-carboxamide]
6.00 to 7.00	–	Cc1ccnc([C@H]2C[C@@H]2C(=O)Nc2cc(OCc3cn4c(N5CC(=O)N(C)C5=O)cc(C5CC5)cc4n3)ncn2)n1 [Example 554, (1S,2S)-N-(6-((7-cyclopropyl-5-(3-methyl-2,4-dioxoimidazolidin-1-yl)imidazo[1,2-a]pyridin-2-yl)methoxy)pyrimidin-4-yl)-2-(4-methylpyrimidin-2-yl)cyclopropane-1-carboxamide]
8.00 to 9.00	–	O=C(Nc1nccc(NCc2cn3cc(C4CC4)ccc3n2)n1)[C@H]1C[C@@H]1c1cccc(Cl)c1 (racemic) [Example 346, (rac-(1S*,2S*))-2-(3-chlorophenyl)-N-(4-(((6-cyclopropylimidazo[1,2-a]pyridin-2-yl)methyl)amino)pyrimidin-2-yl)cyclopropane-1-carboxamide]
> 9.00	–	O=C(Nc1cc(NCc2cn3cc(C4CC4)cc(N4CCOCC4=O)c3n2)ncn1)[C@H]1C[C@@H]1c1cccc(Cl)c1 (racemic) [Example 74, rac-(1S*,2S*)-2-(3-chlorophenyl)-N-(6-(((6-cyclopropyl-8-(3-oxomorpholino)imidazo[1,2-a]pyridin-2-yl)methyl)amino)pyrimidin-4-yl)cyclopropane-1-carboxamide]
> 9.00	–	Cc1ccnc([C@H]2C[C@@H]2C(=O)Nc2cc(OCc3cn4cc(C5(F)CC5)cc(N5CC(=O)N(C)C5=O)c4n3)cnn2)n1 [Example 676, (1S,2S)—N-(5-((6-(1-fluorocyclopropyl)-8-(3-methyl-2,4-dioxoimidazolidin-1-yl)imidazo[1,2-a]pyridin-2-yl)methoxy)pyridazin-3-yl)-2-(4-methylpyrimidin-2-yl)cyclopropane-1-carboxamide]
7.00 to 8.00	–	Cc1ccnc([C@H]2C[C@@H]2C(=O)Nc2cc(N[C@@H](C)c3cn4cc(C(F)F)cc(N5CC(=O)N(C)C5=O)c4n3)nc(C)n2)n1 [Example 427, (1S,2S)-N-(6-(((S)-1-(6-(difluoromethyl)-8-(3-methyl-2,4-dioxoimidazolidin-1-yl)imidazo[1,2-a]pyridin-2-yl)ethyl)amino)-2-methylpyrimidin-4-yl)-2-(4-methylpyrimidin-2-yl)cyclopropane-1-carboxamide]
7.00 to 8.00	–	O=C(Nc1cncc(NCc2cn3cc(C4CC4)ccc3n2)n1)[C@H]1C[C@@H]1c1cccc(Cl)c1 (racemic) [Example 345, (rac-(1S*,2S*))-2-(3-chlorophenyl)-N-(6-(((6-cyclopropylimidazo[1,2-a]pyridin-2-yl)methyl)amino)pyrazin-2-yl)cyclopropane-1-carboxamide]
